# Measured values reported in article PMC9607282 (Pharmaceutics, 2022).
# Read-outs that look alike come from different tables or passages of the source.
# Key:
# G. parasuis H78 [1] = assay: Mutant prevention concentration (MPC), agar dilution; type: cell-based, Glaesserella parasuis
# Description: (§1) The MIC and MBC of G. parasuis H78 in broth and pulmonary epithelial lining fluid (PELF) were determined by the broth dilution method according to the CLSI M07-A9 standard with some modifications. The MPC of G. parasuis H78 in broth was determined by the agar dilution method recommended by CLSI M07-A9. The post-antimicrobial effect (PAE) was determined by the method of bacterial and drug removal after incubation.
# G. parasuis H78 [2] = assay: Post-antimicrobial effect (PAE); type: cell-based, Glaesserella parasuis
# Description: as §1
# [3] = Pharmacokinetics in plasma and PELF of healthy pigs after intramuscular injection; type: in vivo; details: for T 1/2λ / AUC(0-t) / Cmax / Tmax / MRT last: n = 6; for AUC(0-t) / Cmax / Tmax / MRT last: pig, im; for AUC(0-t): AUC 24h; for MRT last: read-out: MRT 24h
# Description: (§2) Twenty-four pigs were randomly divided into 4 groups with 3 healthy groups and 1 infected group. […] The infected group was infected with G. parasuis H78 for 3 days.
# (§3) Add 3 mL of a mixture of dichloromethane and acetonitrile, and vortex centrifuge for 5 min at 10,000 rpm for 10 min. Remove the supernatant into a 10 mL centrifuge tube. Add 3 mL of dichloromethane and acetonitrile to the residue. Extract once again as described above. Combine the supernatant twice, and dissolve the residue with 1 mL of the initial mobile phase. Vortex to mix. Add 1 mL of n-hexane, remove the n-hexane layer (upper layer) to achieve the purpose of degreasing, and then use a 0.22-μm filter membrane to obtain a sample purification solution.
# (§4) A C18 reverse phase column (250 mm × 4.6 mm, i.d., 5 µm, Agilent, Santa Clara, CA, USA) was used for HPLC, which was executed at a detection wavelength of 270 nm at 25 °C. The mobile phase comprised 0.1% trifluoroacetic acid (phase A) and 100% methanol (phase C) with a mobile phase flow rate of 1 mL/min.
# (§5) The urea dilution method was used to determine the volume of PELF as described previously. The concentration of urea and PELF were determined by the urease-glutamate dehydrogenase enzymatic method with an automatic biochemical analyzer (SYNCHRON CX4 PRO; Beckman, Brea, CA, USA) at the National Reference Laboratory of Veterinary Drug Residues (Wuhan, China).
# [4] = Pharmacokinetics in plasma and PELF of pigs infected with G. parasuis H78 after intramuscular injection; type: in vivo; details: for T 1/2λ: infected group, ADP/SMZ injection 5/25 mg/kg b.w. i.m., n = 6; for Tmax: pig, im
# Description: as §2, §3, §4, §5
# G. parasuis H78 [5] = assay: PK-PD integration, sigmoid Emax model on ex vivo time killing in PELF; type: cell-based, Glaesserella parasuis; details: ADP/SMZ injection 5/25 mg/kg b.w. i.m.
# Description: The association between antimicrobial efficiency and the ex vivo PK-PD parameters of AUC0−24h/MIC ratios was simulated by using the model of Emax inhibitory Sigmoid.
# [6] = Adverse reactions after single intramuscular injection in pigs; details: single dose ADP 5, SMZ 25, ADP/SMZ 5/25 mg/kg b.w.
# Description: as §2
# A single dose of 5 mg/kg b.w., 25 mg/kg b.w., and 5/25 mg/kg b.w.
# [7] = six-month-old castrated boar ref 22; cited from earlier work
# E. coli (ATCC 25922) = assay: MIC quality control, agar dilution (CLSI M07-A9); type: cell-based; details: Escherichia coli, ATCC25922, quality control strain
# Source text: E. coli (ATCC 25922) and chloramphenicol were used as quality control, and the experimental results were only valid when the MIC was within the quality control range.
# [8] = PELF, PELF, healthy group, ADP/SMZ injection 5/25 mg/kg b.w. i.m.
# [9] = PELF, PELF, healthy pigs, single drug i.m.: ADP 5 mg/kg b.w., SMZ 25 mg/kg b.w.
# [10] = plasma, plasma, healthy group, ADP/SMZ injection 5/25 mg/kg b.w. i.m.
# [11] = plasma, plasma, healthy pigs, single drug i.m.: ADP 5 mg/kg b.w., SMZ 25 mg/kg b.w.
smiles,measurement,setting,value
"COc1cc(Cc2cnc(N)nc2N)cc(OC)c1N(C)C [ADP, Aditoprim]",MPC,G. parasuis H78 [1],20 µg/mL
same,PAE,"G. parasuis H78 [2]; 1 × MIC, exposure 1 h",0.02 h
same,PAE,"G. parasuis H78 [2]; 1 × MIC, exposure 2 h",0.40 h
same,PAE,"G. parasuis H78 [2]; 2 × MIC, exposure 1 h",0.11 h
same,PAE,"G. parasuis H78 [2]; 2 × MIC, exposure 2 h",0.43 h
same,PAE,"G. parasuis H78 [2]; 4 × MIC, exposure 1 h",0.20 h
same,PAE,"G. parasuis H78 [2]; 4 × MIC, exposure 2 h",0.48 h
same,concentration in PELF after 36 h,"[3]; LOD 0.05 µg/mL, HPLC",below LOD
same,concentration in plasma after 24 h,"[3]; LOD 0.05 µg/mL, HPLC",below LOD
same,T 1/2λ,"[3]; PELF, healthy group, ADP/SMZ injection 5/25 mg/kg b.w. i.m.",6.05 ± 0.20 h
same,T 1/2λ,"[3]; PELF, healthy pigs, single drug i.m.: ADP 5 mg/kg b.w., SMZ 25 mg/kg b.w.",6.42 ± 0.43 h
same,AUC(0-t),[3]; [8],49100 ± 520 ng·h/mL
same,AUC(0-t),[3]; [9],44800 ± 540 ng·h/mL
same,Cmax,[3]; [8],6780 ± 110 ng/mL
same,Tmax,[3]; [8],1.95 ± 0.06 h
same,MRT last,[3]; [8],6.88 ± 0.11 h
same,Cmax,[3]; [9],6880 ± 140 ng/mL
same,Tmax,[3]; [9],2 h
same,MRT last,[3]; [9],6.43 ± 0.09 h
same,AUC(0-t),[3]; [10],7710 ± 260 ng·h/mL
same,AUC(0-t),[3]; [11],7590 ± 240 ng·h/mL
same,Cmax,[3]; [10],870 ± 90 ng/mL
same,Tmax,[3]; [10],2 h
same,MRT last,[3]; [10],7.76 ± 0.26 h
same,Cmax,[3]; [11],920 ± 80 ng/mL
same,Tmax,[3]; [11],1 h
same,MRT last,[3]; [11],7.63 ± 0.27 h
same,T 1/2λ,"[3]; plasma, healthy group, ADP/SMZ injection 5/25 mg/kg b.w. i.m.",7.97 ± 0.81 h
same,T 1/2λ,"[3]; plasma, healthy pigs, single drug i.m.: ADP 5 mg/kg b.w., SMZ 25 mg/kg b.w.",8.8 ± 0.53 h
same,T 1/2λ,[4]; PELF,6.48 ± 0.62 h
same,Tmax,[4]; PELF,1.96 ± 0.05 h
same,Tmax,[4]; plasma,2 h
same,T 1/2λ,[4]; plasma,8.45 ± 0.61 h
same,(AUC24h/MIC)ex (E = 0),G. parasuis H78 [5]; healthy group,32.25 h
same,(AUC24h/MIC)ex (E = −3),G. parasuis H78 [5]; healthy group,113.28 h
same,(AUC24h/MIC)ex (E = −4),G. parasuis H78 [5]; healthy group,221.41 h
same,E 0,G. parasuis H78 [5]; healthy group,−4.78 Log10CFU/mL
same,EC 50 (AUC0−24h/MIC giving 50% of Emax),G. parasuis H78 [5]; healthy group,56.4 h
same,Emax,G. parasuis H78 [5]; healthy group,2.07 Log10CFU/mL
same,Emax − E0,G. parasuis H78 [5]; healthy group,6.85 Log10CFU/mL
same,N (Hill coefficient),G. parasuis H78 [5]; healthy group,1.5
same,(AUC24h/MIC)ex (E = 0),G. parasuis H78 [5]; infected group,27.19 h
same,(AUC24h/MIC)ex (E = −3),G. parasuis H78 [5]; infected group,102.29 h
same,(AUC24h/MIC)ex (E = −4),G. parasuis H78 [5]; infected group,204.17 h
same,E 0,G. parasuis H78 [5]; infected group,−4.8 Log10CFU/mL
same,EC 50 (AUC0−24h/MIC giving 50% of Emax),G. parasuis H78 [5]; infected group,48.06 h
same,Emax,G. parasuis H78 [5]; infected group,2.15 Log10CFU/mL
same,Emax − E0,G. parasuis H78 [5]; infected group,6.95 Log10CFU/mL
same,N (Hill coefficient),G. parasuis H78 [5]; infected group,1.41
same,adverse reactions after intramuscular injection,[6],No serious adverse reactions
same,apparent distribution volume,[7],> 1.4 L/kg
same,elimination half-life,[7],> 2.25 h
"Cc1cc(NS(=O)(=O)c2ccc(N)cc2)no1 [SMZ, Sulfamethoxazole, reference compound]",E 0,G. parasuis H78 [5]; healthy group,−4.4 Log10CFU/mL
same,Emax,G. parasuis H78 [5]; healthy group,2.3 Log10CFU/mL
same,Emax − E0,G. parasuis H78 [5]; healthy group,6.7 Log10CFU/mL
same,N (Hill coefficient),G. parasuis H78 [5]; healthy group,1.56
same,E 0,G. parasuis H78 [5]; infected group,−4.55 Log10CFU/mL
same,Emax,G. parasuis H78 [5]; infected group,2.36 Log10CFU/mL
same,N (Hill coefficient),G. parasuis H78 [5]; infected group,1.52
same,adverse reactions after intramuscular injection,[6],No serious adverse reactions
"COc1cc(Cc2cnc(N)nc2N)cc(OC)c1OC [TMP, trimethoprim, reference compound]",apparent distribution volume,[7],1.4 L/kg
same,elimination half-life,[7],2.25 h
O=C(N[C@H](CO)[C@H](O)c1ccc([N+](=O)[O-])cc1)C(Cl)Cl [chloramphenicol],MIC,E. coli (ATCC 25922),4 µg/mL
